Test results reported in patent US20060257368A1, “Devices and methods for improved viability of cells” (Clemson University, priority 2005, published 2006).

What was measured:
[1] = system: Human umbilical cord stem cells; experiment: Survival of stem cells transplanted into brain tissue after exposure to a hypoxia simulating agent; assay type: in vivo; settings: cells exposed to 50 uM/ml for 12 hours before transplantation into brain tissue; vs untreated group
Method: Human umbilical cord stem cells were exposed to 50 uM/ml ethyl 3,4-dihydroxybenzoate for 12 hours before transplanted into brain tissue to improve their tolerance to hypoxia condition at the injection site after transplantation procedure. Ethyl 3,4-dihydroxybenzoate can increase glucose uptake and glycolytic metabolism of cells. Increased glucose uptake and glycolytic metabolism is an important compensatory mechanism that allows ATP production to be maintained. Such an approach also increases resistance of the transplanted cells to metabolic poison. The resulting transplanted cells will be adjusted to a deficiency of oxygen and, thus, more resistant to transplantation procedures. The survival rate of the transplanted cells is higher for ethyl 3,4-dihydroxybenzoate treated group than that for untreated group.

[2] = system: adult Fischer 344 male rat brains; experiment: Adult brain tissue reaction to PNPX loaded HFMs implanted into rat brain (immunohistochemistry); assay type: in vivo; settings: constant release into local brain tissue, compared to blank control HFM; anti-GFAP and anti-CSPG staining; FIG. 6
Excerpt: Following adult central nervous system (CNS) injury, resident cells and blood-derived inflammatory cells become activated and migrate to the lesion site, eventually form a dense glial scar that is believed to play a significant role in inhibiting CNS regeneration. The inhibitory nature of the glial scar is due not only to the existence of inflammatory cell types, but also to the ECM molecules that are derived from them. […] Blocking CSPG biosynthesis may be a potential means to ameliorate CNS glial scar formation. […] CSPG inhibitor 4-nitrophenyl-β-D-xylopyranoside (PNPX) was incorporated into the HFMs during the fabrication process. The inflammatory responses of adult brain tissue to the HFMs with or without PNPX were evaluated and compared.
Polyacrylonitrile/polyvinylchloride copolymer (PAN/PVC) was used as a model non-degradable polymer as a carrier for PNPX delivery, and poly(DL-Lactide-co-glycolide) (PLGA) 50/50 copolymers was employed as a model degradable polymer for PNPX delivery. Polymer-PNPX was dissolved in dimethyl sulfoxide (DMSO). 1% phthalized-chitosan was added into the solution to enhance the PNPX loading efficiency. PNPX loaded HFMs were fabricated using a wet phase-inversion technique. PNPX loading efficiency and releasing profiles were studied in vitro using HPLC. […]

Compound | survival rate of the transplanted cells [1] | glial scarring response in the vicinity of the PNPX loaded HFM [2]
CCOC(=O)c1ccc(O)c(O)c1 [ethyl 3,4-dihydroxybenzoate] | higher | –
O=[N+]([O-])c1ccc(O[C@@H]2OC[C@@H](O)[C@H](O)[C@H]2O)cc1 [PNPX, 4-nitrophenyl-β-D-xylopyranoside] | – | significantly (P<0.05) suppressed
